The test has as its system HCT116 cells. Description: HCT116 cytotoxic activity assay. As to conditions: Homo sapiens, HCT-116, 72 h with compound, Alamar Blue readout. In kind it is cell-based. For orientation: Resazurin is reduced to fluorescent resorufin, in cell work by metabolically active cells.
[1] abbreviates: read-out: IC50 in the HCT116 cytotoxic activity assay.
Where [2] appears, read: read-out: IC50 in the HCT116 cytotoxic activity assay (upper bound of the class >500 nM).

Counter-ions that a name gives are not always drawn. Like-named read-outs stand apart in the source and are kept apart here. Bounds are passed on as bounds.

For orientation: IC50 means the concentration at which inhibition is half-maximal.

Method: Human tumor cells, e.g., HCT116 cells, are seeded in a 96-well plate at 3.0×10^3 cells/well and grown in 100 μl of RPMI complete media (Invitrogen Corporation, Grand Island, N.Y.) containing 10% fetal bovine serum (Hyclone, Logan, Utah) and 10 mM HEPES and at 37° C. for 16 h in an incubator with 5% CO2. To each well, 50 μl of additional growth media containing 20 μM to 60 nM concentrations of compound with 0.2% DMSO is added. Cells are grown for another 72 h at 37° C. 20 μl of Alamar Blue (Trek Diagnostic Systems, Inc., Cleveland, Ohio) reagent is added to each well and incubated for 4 h at 37° C. Plates are read in a SpectraMax Gemini (Molecular Devices, CA) with 544 nm excitation and 590 nm emission wavelength. IC50 values are determined by linear regression analysis of log drug concentration versus percent inhibition.

For the molecule `Nc1ccc(/C=C/c2cc(Nc3ccc(Oc4ccnc(C(F)(F)F)c4)cc3)nc(N)n2)cc1` [Example 39A, 6-[(E)-2-(4-aminophenyl)vinyl]-N^4-(4-{[2-(trifluoromethyl)pyridin-4-yl]oxy}phenyl)pyrimidine-2,4-diamine trifluoroacetate], the IC50 was over 500 nM under setting [1] and at most 10000 nM under setting [2].
Regarding `Nc1nc(CCCCO)cc(Nc2ccc(Oc3ccnc(C(F)(F)F)c3)cc2)n1` [Example 15, 4-{2-amino-6-[(4-{[2-(trifluoromethyl)pyridin-4-yl]oxy}phenyl)amino]pyrimidin-4-yl}butan-1-ol], under setting [1], the IC50 is at most 500 nM.
As for `Nc1nc(CCCO)cc(Nc2ccc(Oc3ccnc(C(F)(F)F)c3)cc2)n1` [Example 16, 4-{2-amino-6-[(4-{[2-(trifluoromethyl)pyridin-4-yl]oxy}phenyl)amino]pyrimidin-4-yl}propan-1-ol], under setting [1], the IC50 is at most 500 nM.
Turning to `Nc1nc(CCc2cccc(O)c2)cc(Nc2ccc(Oc3ccnc(C(F)(F)F)c3)cc2)n1` [Example 35, 3-(2-{2-amino-6-[(4-{[2-(trifluoromethyl)pyridin-4-yl]oxy}phenyl)-amino]pyrimidin-4-yl}ethyl)phenol], the IC50 is over 500 nM under setting [1] and at most 10000 nM under setting [2].
With `Nc1nc(CCc2ccc(F)cc2)cc(Nc2ccc(Oc3ccnc(C(F)(F)F)c3)cc2)n1` [Example 29, 6-[2-(4-fluorophenyl)ethyl]-N^4-(4-{[2-(trifluoromethyl)pyridin-4-yl]oxy}phenyl)pyrimidine-2,4-diamine], the IC50 under setting [1] was at most 500 nM.
Take `Nc1nc(C#Cc2ccc(F)cc2)cc(Nc2ccc(Oc3ccnc(C(F)(F)F)c3)cc2)n1` [Example 22, 6-[(4-fluorophenyl)ethynyl]-N^4-(4-{[2-(trifluoromethyl)pyridin-4-yl]oxy}phenyl)pyrimidine-2,4-diamine]: the IC50 under setting [1] was at most 500 nM.
In the case of `Nc1nc(CCC(O)CO)cc(Nc2ccc(Oc3ccnc(C(F)(F)F)c3)cc2)n1` (stereo not drawn) [Example 17, 4-{2-amino-6-[(4-{[2-(trifluoromethyl)pyridin-4-yl]oxy}phenyl)amino]pyrimidin-4-yl}butane-1,2-diol], the IC50 by setting is: under setting [1], over 500 nM; under setting [2], at most 10000 nM.
Consider `CC(O)c1cc(Nc2ccc(Oc3ccnc(C(F)(F)F)c3)cc2)nc(N)n1` (stereo not drawn) [Example 2, 1-{2-amino-6-[(4-{[2-(trifluoromethyl)pyridin-4-yl]ox-}phenyl)amino]pyrimidin-4-yl}ethanol], for which the IC50 under setting [1] is over 500 nM and the IC50 under setting [2] is at most 10000 nM.
For the molecule `Nc1nc(/C=C/CCO)cc(Nc2ccc(Oc3ccnc(C(F)(F)F)c3)cc2)n1` [Example 8, (3E)-4-[2-amino-6-[(4-{[2-(trifluoromethyl)pyridin-4-yl]oxy}phenyl)amino]pyrimidin-4-yl]but-3-en-1-ol], the IC50 under setting [1] is at most 500 nM.
Still for that read-out and setting: for `COc1cccc(CCc2cc(Nc3ccc(Oc4ccnc(C(F)(F)F)c4)cc3)nc(N)n2)c1` [Example 31, 6-[2-(3-methoxyphenyl)ethyl]-N4-(4-{[2-(trifluoromethyl)pyridin-4-yl]oxy}phenyl)pyrimidine-2,4-diamine] the value was at most 500 nM; for `Cc1cc(Oc2ccc(Nc3cc(/C=C/c4ccccc4)nc(N)n3)cc2)ccn1` [Example 41, N^4-{4-[(2-methylpyridin-4-yl)oxy]phenyl}-6-[(E)-2-phenylvinyl]-pyrimidine-2,4-diamine], at most 500 nM.
Same read-out and setting: the figure for `Nc1ccc(CCc2cc(Nc3ccc(Oc4ccnc(C(F)(F)F)c4)cc3)nc(N)n2)cc1` [Example 40, 6-[2-(4-aminophenyl)ethyl]-N^4-(4-{[2-(trifluoromethyl)pyridin-4-yl]oxy}phenyl)pyrimidine-2,4-diamine trifluoroacetate] is at most 500 nM; for `N#Cc1cc(Oc2ccc(Nc3cc(/C=C/c4ccc(F)cc4)nc(N)n3)cc2)ccn1` [Example 3, 4-[4-({2-amino-6-[(E)-2-(4-fluorophenyl)vinyl]pyrimidin-4-yl}amino)phenoxy]pyridine-2-carbonitrile] it is at most 500 nM.
Regarding `C=C(OCC)c1cc(Nc2ccc(Oc3ccnc(C(F)(F)F)c3)cc2)nc(N)n1` [Example 1, 6-(1-ethoxyvinyl)-N^4-(4-{[2-(trifluoromethyl)pyridin-4-yl]oxy}phenyl)pyrimidine-2,4-diamine], the IC50 is, setting by setting: under setting [1], over 500 nM; under setting [2], at most 10000 nM.
On to `Nc1nc(/C=C/c2ccc(F)cc2)cc(Nc2ccc(Oc3ccnc(C(F)(F)F)c3)cc2)n1` [Example 5, 6-[(E)-2-(4-fluorophenyl)vinyl]-N^4-(4-{[2-(trifluoromethyl)pyridin-4-yl]oxy}phenyl)pyrimidine-2,4-diamine], for which, under setting [1], the IC50 was at most 500 nM.
Consider `NCCCc1cc(Nc2ccc(Oc3ccnc(C(F)(F)F)c3)cc2)nc(N)n1` [Example 14, 6-(3-aminopropyl)-N^4-(4-{[2-(trifluoromethyl)pyridin-4-yl]oxy}phenyl)pyrimidine-2,4-diamine hydrochloride], for which the IC50 is over 500 nM under setting [1] and at most 10000 nM under setting [2].
For `Nc1ccc(/C=C\c2cc(Nc3ccc(Oc4ccnc(C(F)(F)F)c4)cc3)nc(N)n2)cc1` [Example 39B, 6-[(Z)-2-(4-aminophenyl)vinyl]-N^4-(4-{[2-(trifluoromethyl)pyridin-4-yl]oxy}phenyl)pyrimidine-2,4-diamine trifluoroacetate] the same measures were over 500 nM and at most 10000 nM.

These data come from patent US20090258888A1, “Pyrimidine Derivatives” (Bayer Pharmaceuticals Corporation, priority 2005, published 2009).
